# According to patent US20240366577A1, “CONTROLLED LONG-TERM DRUG DELIVERY AND METHODS THEREOF” (THE JOHNS HOPKINS UNIVERSITY, priority 2021, published 2024):
# Where two headings read alike, the source gives them in different places.
# Legend:
# [1] = SD rats; cited from earlier work
# caspase-3/7 = test: Caspase-Glo 3/7 of tumor lysates; type: in vivo, BALB/c mice; settings: daily bolus regimen; tumors at end of study
# Protocol: (§1) To confirm the effects seen at the level of RNA, immunofluorescent staining of excised tumor samples that were in parallel fixed with paraformaldehyde and embedded in paraffin was performed. […] Co-localization of CD31 with aSMact was, as expected, not linked in crystal sorafenib-treated tumors, where CD31 reduction was more extensive than with daily, bolus sorafenib.
# Caspase activity was determined using the Caspase-Glo 3/7 assay kit and the manufacturer's protocol, with the following modifications. Protein samples (prepared by sonication probe in NP40 lysis buffer (Cat#FNN0021, Thermo)+Halt protease inhibitor cocktail (Cat#78425, Thermo)) were prepared in a 96-well plate following BCA assay (Cat#23225, Pierce/Thermo) protein quantification ([…] in 50 μl) were incubated with 50 μl of reconstituted caspase 3/7 substrate. After a brief shaking, the plate was incubated at room temperature for 1 hr and luciferase activity was determined using a BioTek Synergy 2 plate reader (Biotek; Winooski, VT).
# 4T1 = settings: 20-60 mg/kg dosing; cited from earlier work
# [2] = test system: macrophage Cd68 and myeloid Cd11b; test: qPCR of retrieved tumors: immune markers; type: in vivo, BALB/c mice; settings: daily IP bolus 25 mg/kg BW/day
# [3] = body weight of treated tumor-bearing mice; type: in vivo, BALB/c mice; settings: daily 25 mg/kg bolus in ~60% DMSO solvent solution
# Protocol: However, due to the highly hydrophobic nature of sorafenib, its daily 25 mg/kg bolus dosing regimen required regular used of a solvent solution made up of ˜60% of the strong organic solvent dimethylsulfoxide (DMSO). […] In stark contrast, no DMSO was required for delivery of sorafenib crystals, for which instead simply utilized ˜100-200 μl of saline to inject into the desired IP or SC tissue sites.
# Once tumors had reached an average volume of ˜220-250 mm^3, mice were administered either subcutaneously or intraperitoneally with 3 or 10 mg of crystalline sorafenib, diameter ˜150-200 μm, suspended in 200 μL of sterile saline using an 18 g needle. As a control, mice (n=4) were dosed with sorafenib dissolved at a concentration of 4 mg/mL in a solution of 65% DMSO (remainder DPBS). Mice were dosed either subcutaneously or intraperitoneally with a bolus of 25 mg drug per kg of bodyweight (BW), daily. As a secondary control, mice were dosed with the 65% DMSO/PBS vehicle to monitor changes in body score based on the vehicle alone.
# MDA-MB-231 = settings: 30 mg/kg bodyweight daily oral, cited from earlier work
# tumor endothelial CD31 = test: immunofluorescent staining of tumors: CD31; type: in vivo, BALB/c mice; settings: daily bolus IP 25 mg/kg/day
# Protocol: as §1
# (§2) Immunofluorescence imaging was used to determine anti-angiogenic drug efficacy. Tumor tissues were retrieved from mice and fixed overnight using 4% paraformaldehyde at 4° C. After fixation, retrieved tissue samples were moved to 70% ethanol. Samples were then processed for paraffin embedding, sectioning and staining. […] Next, tissues were incubated for 1 hour in an immunostaining cocktail solution consisting of NucBlue (Thermo), specific marker probes (1:200 dilution) anti-CD31 (Cat#DIA-310, HistoBioTec) and anti-alphaSmoothMuscle actin-Cy3 (Sigma) in Dako staining buffer. For CD31, a goat anti-rat alexa-fluor647 secondary antibody was also used (1:400). After staining, samples were rinsed again with 1X PBS three times prior to slides being cover slipped with Pro-long anti-fade Gold (Thermo). […] For stain quantification, images were converted into 8-bit image files, a background threshold was determined using NIH ImageJ, and then all images were processed using an NIH ImageJ macro to quantify the area of positive stain. […]
# 4T1 tumors = test: orthotopic parent 4T1 TNBC tumor growth; type: in vivo, BALB/c mice; settings: daily IP bolus 25 mg/kg BW/day, dissolved in ~60% DMSO
# Protocol: Namely, 4T1 tumors were treated with either PBS (PBS CONTROL), intraperitoneal (IP) bolus sorafenib (25 mg/kg BW/day) (IP BOLUS), 3 mg IP injected sorafenib crystals (IP CRYSTAL 3 MG), or sorafenib crystals (3 mg: SC CRYSTAL (3 MG); 10 mg: SC CRYSTAL (10 MG)) injected around developed tumors in the subcutaneous (SC) mammary fatpad. Furthermore, to truly test the utility of crystalline sorafenib in treating such an aggressive TNBC model, treatment was carried out retrospectively and only started once tumor volumes reached ˜225-250 mm^3. A positive control liquid-dissolved and daily injected drug treatment group was included, where mice were dosed with a daily bolus of 25 mg sorafenib/kg of mouse BW. […] This may be supported by our prior observation that in the IP compartment, where there is higher 10 liquid turnover as compared to the SC space, crystalline drugs usually have a faster kinetic of release over time.
# 4T1 or 4T1-luc2 cells were trypsinized using 0.25% Trypsin-EDTA, then diluted with the appropriate complete culture media and spun in a centrifuge at 300 g for 5 min. The supernatant was aspirated, and the pellet was re-suspended in serum-free RPMI 1640. The solution was centrifuged again, and the supernatant aspirated. Re-suspension, centrifugation, and aspiration was repeated once more. 5 mL of RPMI-1640 was then added to the pellet. 10 μL of the cell suspension was removed and mixed with 10 μL of Trypan blue stain 0.4% (ThermoFisher). Cells were counted with a Countess automated cell counter. Cell solutions were centrifuged one more time, the supernatant aspirated, and the pellet resuspended in the amount of RPMI-1640 required to achieve a concentration of 5×10^5 cells/200 μL of media. Tumor cells were then administered orthotopically in naive (and anesthetized) BALB/c mice into the right inguinal mammary fat pad 21 with 200 μL aliquots of the cell suspension, using an insulin syringe. Tumors were measured externally using a digital caliper, and volume was calculated (!″* (length * height) *−length * height). Except in the 4T1-luc2 trial, treatment began once tumors reached an average volume of 220-250 mm3. Experimental end point was deemed when solid tumors reached a volume of no more than 2000 mm3. Tumors were extracted and harvested, half stored in 4% paraformaldehyde diluted from 32% (Cat#50980495, Electron Microscopy Services) with DI H2O, and half frozen in liquid nitrogen, then stored at −80° C.
# Once tumors had reached an average volume of ˜220-250 mm^3, mice were administered either subcutaneously or intraperitoneally with 3 or 10 mg of crystalline sorafenib, diameter ˜150-200 μm, suspended in 200 μL of sterile saline using an 18 g needle. […]
# [4] = test system: alpha Smooth Muscle actin (aSMact); test: immunofluorescent staining of tumors: aSMact; type: in vivo, BALB/c mice; settings: daily bolus IP 25 mg/kg/day
# Protocol: as §1, §2
# [5] = test system: foreign body and immune rejection responses to implanted biomedical devices; settings: rodents; cited from earlier work
# [6] = test system: foreign body and immune rejection responses to implanted biomedical devices; settings: non-human primates; cited from earlier work
# [7] = in vitro release under accelerated release conditions; type: physicochemical; settings: 37° C., PBS+0.3% SDS, 2.9 mg drug, 12-day time course; amorphous vs 50 μm vs 150-200 μm crystals
# Source text: After crystals visibly stopped precipitating or growing, the vessel was submerged in an ultrasonic water bath for 10-30 seconds to dislodge crystals from the vessel sidewall and break them into more a uniform size distributions, either smaller fines, for example 50 μm, or between 150-200 μm, as measured by brightfield and scanning electron microscopy, shown in FIGS. 2A-2B. Resultant product was then removed from the supernatant mother solution, dried, weighed, and stored for later use. On average, yielded crystal was approximately 40% of the starting powder. Furthermore, methods exist to quantify solubilized material, typically using optics to identify changes in light transmittance, and enabled testing of crystal stability in a range of aqueous solutions. […] To simulate cumulative drug release over time, all 3 mL supernatant volumes were removed and replaced with completely fresh release media at desired times of 1 hr, 4 hr, 6 hr, 8 hr, 10 hr, 1 day, 2 days, 5 days, 7 days, 10 days and 12 days, and 200 μL aliquots were measured in individual wells of a 96-well plate at 266 nm to determine solubilize sorafenib release, as shown in FIG. 2D.
# Release studies were carried out under accelerated conditions in PBS with 0.3% w/v SDS in 1X PBS. […] Drug concentration in samples was measured using a UV-calibrated Tecan infinite M200 PRO. […]
compound,measurement,setting,value
"CO[C@H]1C[C@@H]2CC[C@@H](C)[C@@](O)(O2)C(=O)C(=O)N2CCCC[C@H]2C(=O)O[C@H]([C@H](C)C[C@@H]2CC[C@@H](O)[C@H](OC)C2)CC(=O)[C@H](C)/C=C(\C)[C@@H](O)[C@@H](OC)C(=O)[C@H](C)C[C@H](C)/C=C/C=C/C=C/1C [crystalline rapamycin, rapamycin]",inflammatory activity / biocompatibility,[1],no inflammatory activity
CNC(=O)c1cc(Oc2ccc(NC(=O)Nc3ccc(Cl)c(C(F)(F)F)c3)cc2)ccn1 [sorafenib],apoptotic index (caspase-3/7 levels in tumor lysates),caspase-3/7,significantly increased
same,effects on tumor growth,4T1,negligible effects
same,recruitment/polarization of CD206+ F4/80+ M2 macrophages,4T1,higher recruitment/polarization
same,Cd68 and Cd11b expression levels (qPCR),[2],no significant changes
same,body weight loss,[3],15-20%
same,tumor reduction,MDA-MB-231; after 9 days,42%
same,angiogenic inhibition,MDA-MB-231,significant angiogenic inhibition
same,tumor endothelial CD31 levels (immunofluorescence),tumor endothelial CD31,significant reduction
same,tumor volumes,4T1 tumors,slight dip in tumor volumes
same,tumor aSMact levels (immunofluorescence),[4],significant reduction
COc1ccc(COc2ccc(Cc3cnc(N)nc3N)cc2OC)cc1 [GW2580],duration of suppression of foreign body and immune rejection responses,[5],over 1.3 years
same,duration of suppression of foreign body and immune rejection responses,[6],≥ 6 months
"CNC(=O)c1cc(Oc2ccc(NC(=O)Nc3ccc(Cl)c(C(F)(F)F)c3)cc2)ccn1 [amorphous (powder) sorafenib, sorafenib]",release of solubilized sorafenib (cumulative),[7],fastest release
